Measurements from ChEMBL document CHEMBL5532707, “SETDB1 as a cancer target: challenges and perspectives in drug design” (RSC Med Chem, 2024).

How the values were obtained:
cells = details: Homo sapiens, MDA-MB-231, 48 h
Description: Downregulation of H3K9me2 level in human MDA-MB-231 cells measured after 48 hrs by Western blot analysis

MDA-MB-231 = assay: Antiproliferative activity against human MDA-MB-231 cells by MTT assay; type: functional, cell-based

IC50 (cells) [nM]	EC50 (MDA-MB-231) [nM]	SMILES
81		COc1cc2c(NC3CCN(C(C)C)CC3)nc(C3CCCCC3)nc2cc1OCCCN1CCCC1
500	2700	COc1cc2nc(N3CCCN(C)CC3)nc(NC3CCN(Cc4ccccc4)CC3)c2cc1OC
